This passage reports Ki and inhibition results from ChEMBL document CHEMBL3769314, “4(5)-Aryl-2-C-glucopyranosyl-imidazoles as New Nanomolar Glucose Analogue Inhibitors of Glycogen Phosphorylase” (ACS Med Chem Lett, 2015).

Usually pKi stands for the Ki on a negative log10 scale, so that one unit is a factor of ten.

Assay [1] deals with T1, Glycogen phosphorylase, muscle form (Oryctolagus cuniculus, UniProt P00489).
T1 sequence (P00489 whole entry): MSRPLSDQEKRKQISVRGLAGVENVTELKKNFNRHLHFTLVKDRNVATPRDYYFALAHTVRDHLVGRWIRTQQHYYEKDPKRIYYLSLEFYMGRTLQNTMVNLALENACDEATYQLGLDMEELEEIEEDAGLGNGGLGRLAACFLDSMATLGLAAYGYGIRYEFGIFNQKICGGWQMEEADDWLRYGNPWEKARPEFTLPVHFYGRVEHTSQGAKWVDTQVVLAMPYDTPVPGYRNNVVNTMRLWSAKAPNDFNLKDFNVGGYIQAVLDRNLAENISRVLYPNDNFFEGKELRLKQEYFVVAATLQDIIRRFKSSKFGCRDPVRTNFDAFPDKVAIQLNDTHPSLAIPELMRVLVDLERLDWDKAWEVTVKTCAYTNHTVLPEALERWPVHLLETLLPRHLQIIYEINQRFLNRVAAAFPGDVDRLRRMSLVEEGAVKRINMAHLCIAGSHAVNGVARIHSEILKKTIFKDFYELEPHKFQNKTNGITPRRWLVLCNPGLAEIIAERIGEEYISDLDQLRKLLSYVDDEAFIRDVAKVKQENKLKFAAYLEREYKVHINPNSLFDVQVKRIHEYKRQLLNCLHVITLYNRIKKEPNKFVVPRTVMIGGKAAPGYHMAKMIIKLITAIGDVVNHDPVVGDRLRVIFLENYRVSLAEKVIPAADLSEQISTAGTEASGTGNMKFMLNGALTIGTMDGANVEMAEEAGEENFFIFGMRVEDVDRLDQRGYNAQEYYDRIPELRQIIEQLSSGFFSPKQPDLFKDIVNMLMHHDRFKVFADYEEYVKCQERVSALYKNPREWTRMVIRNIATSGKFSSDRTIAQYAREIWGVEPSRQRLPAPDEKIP
Kind of assay: Competitive inhibition of rabbit muscle glycogen phosphorylase-b using alpha-D-glucose-1-phosphate as substrate by Dixon plot analysis.

In assay [2] the target is T2, Glycogen phosphorylase, muscle form (Oryctolagus cuniculus) (UniProt P00489).
T2 sequence (whole entry): T1 sequence (P00489 whole entry)
Kind of assay: Inhibition of rabbit muscle glycogen phosphorylase-b using alpha-D-glucose-1-phosphate as substrate at 625 uM by Dixon plot analysis.

Assay [3] has as its target T1, Glycogen phosphorylase, muscle form.

pKi: −log10 of the molar value. Calls of active or inactive are those of the source. The rule behind the calls is not given here.

`OC[C@H]1O[C@@H](c2nc(-c3ccccc3)c[nH]2)[C@H](O)[C@@H](O)[C@@H]1O` had a negative logarithm of the Ki (pKi) in assay [1] of 6.55.

Consider `OC[C@H]1O[C@@H](c2nc(-c3ccc4ccccc4c3)c[nH]2)[C@H](O)[C@@H](O)[C@@H]1O`, for which the negative logarithm of the Ki (pKi) in assay [1] was 7.51.

Turning to `OC[C@H]1O[C@@H](c2cc(-c3ccccc3)on2)[C@H](O)[C@@H](O)[C@@H]1O`, the inhibition entry in assay [2] was “inactive”.

Turning to `OC[C@H]1O[C@@H](c2nc3ccccc3s2)[C@H](O)[C@@H](O)[C@@H]1O`, the pKi in assay [3] is 3.64.

In the case of `OC[C@H]1O[C@@H](c2nc(-c3ccc4ccccc4c3)cs2)[C@H](O)[C@@H](O)[C@@H]1O`, in assay [1], the pKi was 3.80.

In assay [1], `OC[C@H]1O[C@@H](c2nc(-c3ccccc3)cs2)[C@H](O)[C@@H](O)[C@@H]1O` showed a pKi of 3.51.

As for `OC[C@H]1O[C@@H](c2cc(-c3ccccc3)n[nH]2)[C@H](O)[C@@H](O)[C@@H]1O`, in assay [3], the pKi was 3.40.
